From ChEMBL document CHEMBL1141174, “Quantitative structure-activity relationship analysis of inhibitors of the nicotine metabolizing CYP2A6 enzyme” (J Med Chem, 2005)

B1: Cytochrome P450 2A5 (Mus musculus) (protein)
chain: MLTSGLLLVAAVAFLSVLVLMSVWKQRKLSGKLPPGPTPLPFIGNFLQLNTEQMYNSLMKISQRYGPVFTIYLGPRRIVVLCGQEAVKEALVDQAEEFSGRGEQATFDWLFKGYGVVFSSGERAKQLRRFSIATLRDFGVGKRGIEERIQEEAGFLIDSFRKTNGAFIDPTFYLSRTVSNVISSIVFGDRFDYEDKEFLSLLRMMLGSFQFTATSMGQLYEMFSSVMKHLPGPQQQAFKELQGLEDFITKKVEHNQRTLDPNSPRDFIDSFLIRMLEEKKNPNTEFYMKNLVLTTLNLFFAGTETVSTTLRYGFLLLMKHPDIEAKVHEEIDRVIGRNRQPKYEDRMKMPYTEAVIHEIQRFADMIPMGLARRVTKDTKFRDFLLPKGTEVFPMLGSVLKDPKFFSNPKDFNPKHFLDDKGQFKKNDAFVPFSIGKRYCFGEGLARMELFLFLTNIMQNFHFKSTQAPQDIDVSPRLVGFATIPPTYTMSFLSR

Columns and labels:
[1] = molecular target: T1, Cytochrome P450 2A6 (Homo sapiens, UniProt P11509); assay: Inhibitory concentration against human cytochrome P450 2A6
T1 sequence (P11509 whole entry): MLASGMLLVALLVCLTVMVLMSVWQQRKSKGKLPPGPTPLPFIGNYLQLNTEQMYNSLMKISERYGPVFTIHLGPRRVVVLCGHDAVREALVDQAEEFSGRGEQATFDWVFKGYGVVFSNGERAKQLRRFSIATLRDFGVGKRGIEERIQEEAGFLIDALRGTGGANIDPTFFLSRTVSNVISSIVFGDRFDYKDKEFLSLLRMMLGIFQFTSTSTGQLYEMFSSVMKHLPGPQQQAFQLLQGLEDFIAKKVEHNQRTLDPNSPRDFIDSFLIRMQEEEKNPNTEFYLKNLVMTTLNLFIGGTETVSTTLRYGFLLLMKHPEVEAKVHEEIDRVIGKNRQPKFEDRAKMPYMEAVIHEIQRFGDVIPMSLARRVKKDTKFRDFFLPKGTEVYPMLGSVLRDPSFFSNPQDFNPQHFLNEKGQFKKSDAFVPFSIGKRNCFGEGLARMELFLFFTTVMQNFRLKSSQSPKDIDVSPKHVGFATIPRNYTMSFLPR

[2] = molecular target: T2, Cytochrome P450 2A5 (Mus musculus, UniProt P20852); assay: Inhibitory concentration against mouse cytochrome P450 2A5
T2 sequence (P20852 whole entry): B1 chain

[3] = system: CYP2A6 / CYP2A5; assay: Ratio of IC50 for human CYP2A6 to that of mouse CYP2A5 was determined
[4] = molecular target: T3, CYP2A6 (Homo sapiens, UniProt P11509); assay: Michaelis-Menten constant of compound against human cytochrome P450 2A6 enzyme; format: ADME
T3 sequence (P11509 whole entry): T1 sequence (P11509 whole entry)

[5] = substrate: O=c1ccc2ccccc2o1; assay: Michaelis-Menten constant of compound against mouse cytochrome P450 2A5 enzyme; format: ADME

Molecule	IC50 [1]	IC50 [2]	selectivity ratio [3]	Km [4]	Km [5]
Cc1cc(C)c2ccccc2n1	830 µM	110 µM	7.7		
Oc1cccc2ccccc12 [1-NAPHTHOL]	130 µM	140 µM	0.96		
CN1C(=O)CCC1c1cccnc1 (single isomer, unassigned) [COTININE]		1500 µM	42.8		
Cc1ccc2ccccc2n1 [QUINALDINE]	190 µM	80 µM	2.4		
COc1ccc(C=O)cc1 [ANISALDEHYDE]	7.1 µM	5.9 µM			
Oc1ccc2ccccc2c1 [BETANAPHTHOL]	140 µM	78 µM	1.8		
COc1cc2c(cc1OC)CC(=O)CC2	2000 µM	210 µM	9.2		
O=C1CCCc2ccccc21	52 µM	14 µM	3.6		
Cc1cnc2ccccc2c1	200 µM	100 µM	1.9		
Brc1ccc2ccccc2c1	0.55 µM	2.5 µM	0.22		
NCCc1ccccc1 [PHENETHYLAMINE]	38.9 µM	1000 µM			
Cc1ccc(C=O)cc1		20.9 µM			
Clc1cc2ccccc2cc1Cl	> 60 µM	60 µM			
O=c1ccc2ccccc2o1 [COUMARIN]				740 nM	
Cc1ccc2cccc(C)c2c1	31 µM	14 µM	1.2		
Brc1ccc(Br)cc1	59 µM	2.2 µM	48.5		
Cc1cccc2c(C)cccc12	31 µM	34 µM	0.91		
Clc1cc2cc(Cl)c(Cl)c(Cl)c2cc1Cl	> 600 µM	300 µM			
c1ccc2ccccc2c1 [NAPHTHALENE]	25 µM	74 µM	0.34		
CC(N)Cc1ccccc1 (stereo not drawn) [AMPHETAMINE]	3.5 µM	2.85 µM			
Fc1ccc2ccccc2c1	0.67 µM	7.3 µM	0.09		
Clc1ccccc1-c1ccccc1	36 µM	13 µM	2.8		
Clc1ccc(-c2ccccc2)cc1	150 µM	18 µM	8.2		

Molecule	IC50 [1]	IC50 [2]	selectivity ratio [3]	Km [4]	Km [5]
Clc1cccc2ccccc12	18 µM	14 µM	1.3		
Cc1ccc(CCN)cc1	5.3 µM	4 µM			
CC(=O)c1ccc2ccc(C)cc2c1	6.7 µM	4.1 µM	1.6		
CN1CCC[C@@H]1c1cccnc1 [R-NICOTINE]	580 µM	160 µM	3.8		
Cc1ccc2ccccc2c1	2.4 µM	7 µM	0.34		
O=C1CCc2ccccc2C1	21 µM	9.7 µM	2.2		
Clc1ccc2ccccc2c1	5.4 µM	12 µM	0.45		
Clc1cccc2c(Cl)cccc12	2.5 µM	2.4 µM	1.04		
Clc1ccc2ccccc2c1Cl	15 µM	5.5 µM			
Cc1ccc2ccc(C)cc2c1	1.7 µM	1.4 µM			
Cc1ccc2ccc(C)nc2c1	400 µM	180 µM	2.2		
O=Cc1ccccc1 [BENZALDEHYDE]	3.92 µM	3.28 µM			
Cc1ccc2cc(C)ccc2c1	10 µM	1.7 µM	5.9		
Clc1ccc2ccc(Cl)cc2c1	> 100 µM	4.4 µM			
Cc1nccc2ccccc12	60 µM	170 µM	0.36		
CCc1ccc2ccccc2c1	12 µM	4.8 µM	2.4		
Clc1ccc(Cl)cc1 [1,4-DICHLOROBENZENE]	17 µM	1 µM	30.4		
Cc1cc2ccccc2cn1	25 µM	4.8 µM	5.1		
Cc1cccc2ccccc12	34 µM	24 µM	1.4		
c1ccc2c(c1)ccc1ccccc12 [PHENANTHRENE]	97 µM	26 µM	4		
Cc1ccc2c(C)cccc2c1	130 µM	32 µM	4		
B1					0.64 µM
